# Source: patent US6911454B1, “Method for potentiating primary drugs in treating multidrug resistant disease” (priority 1989, dated 2005)
# Where two headings read alike, the source gives them in different places.
# How the values were obtained:
# [1] = test system: CQ-sensitive (FCMSU1/Sudan) strain of P. falciparum; assay: 3H-adenosine incorporation, chloroquine-sensitive P. falciparum; assay type: cell-based
# Method: (§1) Chloroquine and qinghaosu are commonly used antimalarial drugs.
# (§2) The dose (IC50) of each drug or each drug combination required to effect a 50% inhibition in the malarial activity of each strain was determined by establishing a dose response curve for each.
# (§3) FCMSU1/Sudan strain and cloned Indochina (W-2) strain of P. falciparum were used. […] The two strains of the parasite were cultured according to the candle jar method of Trager and Jensen, Science, Vol. 193, pages 673-675 (1976). In a given experiment, four-day-old Petri dish cultures (approximately 10% parasitemia) were diluted with medium containing an amount of noninfected type A human erythrocytes to obtain a culture with a final hematocrit of 1.5% and parasitemia of 0.5-1.0%. The resulting culture was ready for addition to microtitration plates with ninety-six flat-bottom wells.
# (§4) The testing procedure used was similar to that described by Desjardins et al. in “Antimicrobial Agents and Chemotherapy,” Vol. 16, pages 710-718 (1979). […] 25 microliters radioactive (0.5 microCi) [2,8-^3H] adenosine. The microtitration plates were incubated in a candle jar for an additional 18 hours, at 37° C.
# (§5) As the malaria parasite grows ^3H-adenosine is metabolized and incorporates into polymeric RNA and DNA. The labeled polymers are trapped on glass fiber filters and unincorporated material is washed away. In the absence of drug there is 100% incorporation of the labeled material. When drugs interfere (directly or indirectly), an inhibitory dose of 50% (IC50) can be calculated. The experiments were repeated three times except where noted. Statistical analysis was done using Student's T-test for significance. Van Kyke et al. “Exp. Parasitol,” Vol. 64, pages 418-423 (1987).
# (§6) The test procedure was basically the same as outlined above.
# [2] = test system: CQ-resistant (W-2) strain of P. falciparum; assay: 3H-adenosine incorporation, chloroquine-resistant P. falciparum; assay type: cell-based; details: for Ratio (S/R): IC50 against sensitive strain divided by IC50 for resistant strain
# Method: as §1, §2, §3, §4, §5, §6
# DX20 cancer cells = assay: modified MTT assay, drug sensitivity of DX20 cells; assay type: cell-based, human; details: DX20 cells
# Source text: The MES-SA/DX20 cell line was established according to the development methods of Sikic et al., Resistance to Antineoplastic Drugs, Chap. 3, CRC Press, Ed. David Kessel, pp. 37-47 (1989). In vitro drug sensitivity testing consisted of two assay models, the modified MTT assay (Mossman, J. Immunolog. Methods, Vol. 65, pp. 55-63, 1983) and the colonogenic assay. In addition to this, the combinations were investigated in vivo in nude mice bearing the DX20 cell line. The MTT assay was chosen because of its practical advantages in large-scale screening. The assay involved cellular conversion of tetrazolium salt to a colored formazan serving as a measurement of cell viability.
# In a given experiment, culture media, 50 microliters, containing 8,000-25,000 cells, depending on the proliferation rate of the cell line, was pipetted into each well of several 96-well microtiter plates. The cells were allowed to attach overnight. […] The cytotoxic drug, also at a concentration below that previously established as an IC50, was then added at decreasing concentrations by 25% to several half plate sections. The cells were allowed to grown for 72 hours. 100 microliters of media was then removed and 25 microliters of 5 mg/ml MTT (Sigma, St. Louis, Mo.) in phosphate buffered saline was added to each well. The plates were kept in an incubator at 37° C. and 5% CO2. After 2-3 hours of incubation, the extraction buffer containing 20% w/v SDS and 50% DMF was added and the plates again incubated overnight. The plates were read at a test wavelength of 570 nm on a multiwell spectrophotometer (Model MR 700, Dynatech Laboratories, Alexandria, Va.). Each drug combination was tested in triplicate. Percent survival was defined as percent of optical density (OD) of the drug-treated wells to that of the control detected by the spectrophotometer.
# The in vitro drug sensitivity testing of ethyl fangchinoline consisted of two assay models, the modified MTT (Mossman 1983) and a colony formation assay in which a direct measure was taken by quantitation of colony formation. The MTT assay was chosen because of its practical advantages in large scale screening. The assay involves cellular conversion of tetrozolium salt to a colored formazan serving as a measurement of cell viability.
# Two human cell lines were chosen as the primary targets of study in reversing multiple-drug resistance. The MES-SA, a sarcoma, and its resistant subline, DX-20, were kindly donated by Dr. B. Sikic (U of Stanford, Stanford, Calif.). The A2780, an ovarian cancer, and its resistant subline, A2780-ad10, were provided by Roswell Park Memorial Inst. (Buffalo, N.Y.).
# Culture media, 50 ul containing 8,000 to 25,000 cells depending on the proliferation rate of the line, was pipetted into each of 96 wells in a flat bottom tissue plate. The cells were incubated overnight to allow adherence. One hundred ul of ethyl fangchinoline, at a concentration below that previously established as an independent IC50, was added to each experimental well. […] The plates were then incubated for 72 hours before MTT was added and the analysis of O.D. values interpreted by a multi-plate scanner (MR700, Dynatech).
# DX20 tumor = assay: tumor measurements in nude mice bearing the DX20 tumor; assay type: in vivo; parameters: unit not given here
# Method: (See FIG. 6). Tumor size was calculated using the formula (4 Pi/3) X*Y*2Z.
# The study was done with 3-4 week old male balb-C nude mice. The animals were injected with DX20 1×10^7 cells.
# [3] = test system: multidrug resistant human cancer (DX20); assay type: in vivo, mice; details: d-tetrandrine 0.5, 1, 1.5 mg injections; doxorubicin 5.5 mg per kg; about one month
# Method: It is only important that they be administered sufficiently close together that the cancer is exposed to both simultaneously. For example, nude mice infected with a multidrug resistant human cancer were given 0.5 mg, 1 mg and 1.5 mg respectively in three separate injections, 72 hours apart.
# [4] = test system: resistant (K562-R7) cancel cells; assay: doxorubicin fluorescence test by flow cytometry; assay type: cell-based; details: FIG. 12; doxorubicin used alone
# [5] = Table VII, chloroquine-sensitive strain, drug alone, read-out: IC50 S
# [6] = Table VII, chloroquine-resistant strain, drug alone, read-out: IC50 R
# [7] = Plasmodium falciparum, read-out: IC50 S
# [8] = Plasmodium falciparum, read-out: IC50 R
# [9] = Day 7 Prior to Treatment (baseline)
# [10] = Day 24 After Treatment, d-tetrandrine days 6, 8, 10, doxorubicin 5.5 mg/kg day 12
# [11] = Plasmodium falciparum, read-out: IC50 DRUG COMBINATION TT(1.0 uM) CQ(0.3 uM)
# [12] = Plasmodium falciparum, read-out: IC50 DRUG COMBINATION TT(2.0 uM) CQ(0.2 uM)
# [13] = Plasmodium falciparum, read-out: IC50 DRUG COMBINATION TT(3.0 uM) CQ(0.1 uM)
# [14] = Plasmodium falciparum, read-out: IC50 SINGLE DRUG
compound,measurement,setting,value
"COc1cc2c3cc1Oc1c(OC)c(OC)cc4c1[C@@H](Cc1ccc(O)c(c1)Oc1ccc(cc1)C[C@@H]3N(C)CC2)N(C)CC4 [BB, berbamine]",IC50,[1]; [5],460 nM
same,Ratio (S/R),[2],2.7
same,IC50,[2]; [6],190 nM
"COc1ccc2cc1Oc1ccc(cc1)C[C@H]1c3c(cc4c(c3Oc3cc5c(cc3OC)CCN(C)[C@@H]5C2)OCO4)CCN1C [CE, cepharanthine]",IC50,[1]; [7],1000 nM
same,Ratio (S/R),[2],1.1
same,IC50,[2]; [8],940 nM
cycleanine,IC50,[1]; [5],3200 nM
same,Ratio (S/R),[2],0.8
same,IC50,[2]; [6],4200 nM
"COc1ccc2cc1Oc1ccc(cc1)C[C@H]1c3cc(c(OC)cc3CCN1C)Oc1c(O)c(OC)cc3c1[C@H](C2)N(C)CC3 [TA, fangchinoline]",IC50,[1]; [5],260 nM
same,Ratio (S/R),[2],1.2
same,IC50,[2]; [6],220 nM
"C[C@@H]1CC[C@H]2[C@@H](C)C(=O)O[C@@H]3O[C@@]4(C)CC[C@@H]1[C@]32OO4 [QHS, qinghaosu]",IC50,"[1]; S STRAIN, TT/QHS 10:1, mean ± S.D, read-out: IC50 DRUG COMBINATION TT(2.0 uM) QHS(0.2 uM)",11.4 ± 0.6 nM
same,IC50,"[1]; Table IV, S STRAIN, mean ± S.D, read-out: IC50 SINGLE DRUG",36.7 ± 4.7 nM
same,IC50,"[1]; read-out: IC50 DRUG COMBINATION TT(1.0 uM) QHS(0.3 uM), S STRAIN, TT/QHS 10:3, mean ± S.D",21.6 ± 2.7 nM
same,IC50,"[1]; read-out: IC50 DRUG COMBINATION TT(3.0 uM) QHS(0.1 uM), S STRAIN, TT/QHS 30:1, mean ± S.D",7.3 ± 1.2 nM
same,IC50,"[2]; R STRAIN, TT/QHS 10:1, mean ± S.D, read-out: IC50 DRUG COMBINATION TT(2.0 uM) QHS(0.2 uM)",7.2 ± 1.4 nM
same,IC50,"[2]; Table IV, R STRAIN, mean ± S.D, read-out: IC50 SINGLE DRUG",47.8 ± 14.5 nM
same,IC50,"[2]; read-out: IC50 DRUG COMBINATION TT(1.0 uM) QHS(0.3 uM), R STRAIN, TT/QHS 10:3, mean ± S.D",17.9 ± 4.1 nM
same,IC50,"[2]; read-out: IC50 DRUG COMBINATION TT(3.0 uM) QHS(0.1 uM), R STRAIN, TT/QHS 30:1, mean ± S.D",4.6 ± 1.4 nM
"COc1cc(C[C@H]2c3cc(OC)c(OC)cc3CCN2C)c(Oc2cc3c(cc2OC)-c2c(OC)c(OC)cc4c2[C@H](C3)N(C)CC4)cc1OC [TH, thalicarpine]",IC50,"[1]; Plasmodium falciparum, Table VII, chloroquine-sensitive strain, drug alone, read-out: IC50 S",1700 nM
same,Ratio (S/R),[2],1.3
same,IC50,"[2]; Plasmodium falciparum, Table VII, chloroquine-resistant strain, drug alone, read-out: IC50 R",1300 nM
COc1cccc2c1C(=O)c1c(O)c3c(c(O)c1C2=O)C[C@@](O)(C(=O)CO)C[C@@H]3O[C@H]1C[C@H](N)[C@H](O)[C@H](C)O1 [doxorubicin],IC50,"DX20 cancer cells; Homo sapiens, d-tetrandrine 2 × 10^−7 molar, read-out: IC50 doxorubicin in d-tetrandrine",660 nM
same,IC50,"DX20 cancer cells; Homo sapiens, d-tetrandrine 4 × 10^−7 molar, read-out: IC50 doxorubicin in d-tetrandrine",360 nM
same,IC50,"DX20 cancer cells; Homo sapiens, ethyl fangchinoline 1 × 10^−6 molar, read-out: IC50 doxorubicin in ethyl fangchinoline",480 nM
same,IC50,"DX20 cancer cells; Homo sapiens, ethyl fangchinoline 2 × 10^−7 molar, read-out: IC50 doxorubicin in ethyl fangchinoline",470 nM
same,IC50,"DX20 cancer cells; Homo sapiens, ethyl fangchinoline 4 × 10^−7 molar, read-out: IC50 doxorubicin in ethyl fangchinoline",160 nM
same,IC50,"DX20 cancer cells; Homo sapiens, single agent, read-out: IC50 alone",5400 nM
same,Tumor Measurements Depth,DX20 tumor; [9],1.25
same,Tumor Measurements Length,DX20 tumor; [9],3.50
same,Tumor Measurements Width,DX20 tumor; [9],3.87
same,Tumor Measurements Depth,DX20 tumor; [10],21.50
same,Tumor Measurements Length,DX20 tumor; [10],24.50
same,Tumor Measurements Width,DX20 tumor; [10],19.10
same,tumor outcome,[3],very large tumors which were unabated
same,doxorubicin concentration (fluorescence) in resistant versus sensitive cells,[4],lower concentration of doxorubicin than does a sensitive cancer
"COc1cc2c3cc1Oc1c(OC)c(OC)cc4c1[C@@H](Cc1ccc(O)c(c1)Oc1ccc(cc1)C[C@H]3N(C)CC2)N(C)CC4 [PY, pycnamine]",IC50,[1]; [5],380 nM
same,Ratio (S/R),[2],0.9
same,IC50,[2]; [6],420 nM
"COc1ccc2cc1Oc1ccc(cc1)C[C@@H]1c3cc(c(OC)cc3CCN1C)Oc1c(OC)c(OC)cc3c1[C@H](C2)N(C)CC3 [IT, isotetrandrine]",IC50,[1]; [5],480 nM
same,IC50,[2]; [6],140 nM
"COc1ccc2cc1Oc1ccc(cc1)C[C@H]1c3cc(c(OC)cc3CCN1C)Oc1c(OC)c(OC)c(OC)c3c1[C@H](C2)N(C)CC3 [HE, hernandezine]",IC50,[1]; [5],370 nM
same,Ratio (S/R),[2],2.8
same,IC50,[2]; [6],130 nM
ethyl fangchinoline,IC50,"DX20 cancer cells; single agent, read-out: IC50 alone",6500 nM
"COc1ccc2cc1Oc1ccc(cc1)C[C@@H]1c3cc(c(OC)cc3CCN1C)Oc1c(OC)c(OC)cc3c1[C@@H](C2)N(C)CC3 [PH, phacanthine]",IC50,[1]; [5],600 nM
same,IC50,[2]; [6],500 nM
"COc1cc(C[C@H]2c3cc(OC)c(OC)c(OC)c3CCN2C)c(Oc2cc3c(cc2OC)-c2c(OC)c(OC)c(OC)c4c2[C@H](C3)N(C)CC4)cc1OC [ME, methoxadiantifoline]",IC50,[1]; [7],5300 nM
same,Ratio (S/R),[2],5.5
same,IC50,[2]; [8],970 nM
same,effectiveness against resistant versus sensitive malarial strain,[2]; conclusion from Table VII,substantially more effective against the chloroquine resistant malarial strain than against the chloroquine sensitive malarial strain
"COc1cc2c3cc1Oc1c(O)c(OC)cc4c1[C@@H](Cc1ccc(O)c(c1)Oc1ccc(cc1)C[C@@H]3N(C)CC2)N(C)CC4 [OB, obamegine]",IC50,[1]; [5],660 nM
same,Ratio (S/R),[2],1.5
same,IC50,[2]; [6],480 nM
"CCN(CC)CCCC(C)Nc1ccnc2cc(Cl)ccc12 (stereo not shown) [CQ, chloroquine]",IC50,[1]; [11],16.5 ± 2.1 nM
same,IC50,[1]; [12],11.4 ± 2.3 nM
same,IC50,[1]; [13],7.4 ± 1.3 nM
same,IC50,[1]; [14],26.7 ± 3.8 nM
same,lowering of the IC50 of chloroquine,[2]; 3.0 micromolar d-tetrandrine added to 0.1 micromolar chloroquine,43 Fold
same,IC50,[2]; [11],23.8 ± 4.1 nM
same,IC50,[2]; [12],8 ± 1.6 nM
same,IC50,[2]; [13],4.2 ± 0.3 nM
same,IC50,[2]; [14],186 ± 4.9 nM
